# Test results from patent US8980569B2, “Chronic lymphocytic leukemia prognosis and treatment” (Duke University, priority 2007, dated 2015).
# Test system: CLL cells
# Settings: freshly isolated CLL cells
compound,measurement,setting,value
"COc1cc2c(cc1O)CC[C@@H]1[C@@H]2CC[C@]2(C)[C@@H](O)CC[C@@H]12 [2-ME, 2-methoxyestradiol]",percent cytotoxicity,"at 10 μM, 72 hours",71%
same,EC50,"read-out: effective dose for 50% killing (ED50), incubated 72 hours",7.5 µM
